Assay results from patent publication US20100004128A1, “HERBICIDAL ISOXAZOLINE COMPOUNDS” (SYNGENTA CROP PROTECTION, INC., priority 2006, published 2010).

Tested on: Monocotyledonous and dicotyledonous test plants
Assay: Herbicidal action, application pre-emergence
Type: in vivo
Design: key: 10=total damage to plant; 0=no damage to plant
Details: spray solution 1000 mg/l, scale 0-10; for Herbicidal action (damage score) AGSTE: Agrostis tenius; for Herbicidal action (damage score) AMARE: Amaranthus retroflexus; for Herbicidal action (damage score) DIGSA: Digitaria sanguinalis; for Herbicidal action (damage score) POATR: Poa trivialis; for Herbicidal action (damage score) SETFA: Setaria faberi; for Herbicidal action (damage score) SETIT: Setaria italica
Protocol: Monocotyledonous and dicotyledonous test plants were sown in sterilised standard soil in seed trays each having 96 cells. After one day (pre-emergence) or after 8 to 9 days cultivation (post-emergence) under controlled conditions in a climatic chamber (cultivation at 23/17° C., day/night; 13 hours light; 50-60% humidity; after application at 24/19° C., day/night), the plants were treated with an aqueous spray solution of 1000 mg/l of the active ingredient used (incl. 10% DMSO as solvent). The plants were grown on in the climatic chamber until the test was evaluated (10=total damage to plant, 0=no damage to plant) after 9 or 13 days.

| SMILES | Herbicidal action (damage score) AGSTE | Herbicidal action (damage score) AMARE | Herbicidal action (damage score) DIGSA | Herbicidal action (damage score) POATR | Herbicidal action (damage score) SETFA | Herbicidal action (damage score) SETIT |
| --- | --- | --- | --- | --- | --- | --- |
| CC1(C)CC(S(=O)(=O)C(F)(F)c2nn(C3CCCC3)nc2C(F)(F)F)=NO1 [1.29] | 10 | 8 | 9 | 6 | 9 | – |
| Cn1ncc(C(F)(F)[S+]([O-])C2=NOC(C)(C)C2)n1 (stereo not shown) [1.36] | 10 | 9 | 10 | 10 | 9 | – |
| CC1(C)CC([S+]([O-])C(F)c2nn(C3CCCC3)nc2C(F)(F)F)=NO1 (mixture of isomers) [1.30] | 10 | 10 | 9 | 10 | 8 | – |
| CC(C)n1nc(C(F)(F)F)c(C(F)(F)S(=O)(=O)C2=NOC(C)(C)C2)n1 [1.17] | 10 | 10 | 9 | 10 | 10 | – |
| CCc1nn(C)nc1C(F)(F)S(=O)(=O)C1=NOC(C)(C)C1 [1.26] | 10 | 10 | 10 | 10 | 10 | – |
| Cn1nc(C(F)(F)F)c(C(F)(F)S(=O)(=O)C2=NOC(C)(C)C2)n1 [1.09] | 10 | 10 | 10 | 10 | – | 10 |
| Cn1nnc(C(F)(F)F)c1C(F)S(=O)(=O)C1=NOC(C)(C)C1 (stereo not shown) [Compound No. 3.01] | 10 | 5 | 10 | 10 | – | 8 |
| Cc1nn(C(C)C)nc1C(F)(F)S(=O)(=O)C1=NOC(C)(C)C1 [1.41] | 10 | 10 | 10 | 10 | 9 | – |
| CC(C)n1nc(C(F)(F)F)c(C(F)(F)[S+]([O-])C2=NOC(C)(C)C2)n1 (racemic) [1.18] | 10 | 10 | 10 | 10 | 9 | – |
| CC1(C)CC(S(=O)(=O)C(F)(F)c2nn(CC3CCC3)nc2C(F)(F)F)=NO1 [1.48] | 10 | 9 | 10 | 6 | 9 | – |
| Cn1nc(Br)c(C(F)(F)[S+]([O-])C2=NOC(C)(C)C2)n1 (stereo not shown) [1.47] | 10 | 10 | 9 | 10 | 9 | – |
| Cn1nc(Br)c(C(F)S(=O)(=O)C2=NOC(C)(C)C2)n1 (stereo not shown) [1.45] | 10 | 9 | 10 | 10 | 9 | – |
| Cn1nnc(Br)c1C(F)(F)S(=O)(=O)C1=NOC(C)(C)C1 [Compound No. 3.04] | 10 | 10 | 9 | 10 | 9 | – |
| Cn1nc(C(F)(F)F)c(C(F)(Cl)S(=O)(=O)C2=NOC(C)(C)C2)n1 (racemic) [1.10] | 10 | 10 | 10 | 10 | – | 10 |
| COCCn1nc(C(F)[S+]([O-])C2=NOC(C)(C)C2)c(C(F)(F)F)n1 (mixture of isomers) [1.24] | 10 | 10 | 10 | 10 | 9 | – |
| CCn1ncc(C(F)[S+]([O-])C2=NOC(C)(C)C2)n1 (mixture of isomers) [1.39] | 10 | 9 | 9 | 10 | 9 | – |

| SMILES | Herbicidal action (damage score) AGSTE | Herbicidal action (damage score) AMARE | Herbicidal action (damage score) DIGSA | Herbicidal action (damage score) POATR | Herbicidal action (damage score) SETFA | Herbicidal action (damage score) SETIT |
| --- | --- | --- | --- | --- | --- | --- |
| Cc1nn(C(F)F)nc1C(F)S(=O)(=O)C1=NOC(C)(C)C1 (racemic) [Compound No. 1.19] | 10 | 10 | 10 | 10 | 10 | – |
| C=CCn1nc(C(F)(F)F)c(C(F)(F)S(=O)(=O)C2=NOC(C)(C)C2)n1 [1.32] | 10 | 10 | 10 | 10 | 10 | – |
| CC1(C)CC(S(=O)(=O)C(F)c2cn(C(C)(C)C)nn2)=NO1 (stereo not shown) [Compound No. 2.01] | 10 | 3 | 9 | 0 | 9 | – |
| COCCn1nc(C(F)(F)F)c(C(F)(F)[S+]([O-])C2=NOC(C)(C)C2)n1 (racemic) [1.25] | 10 | 10 | 10 | 10 | 9 | – |
| Cn1nc(C(F)S(=O)(=O)C2=NOC(C)(C)C2)c(C(F)(F)F)n1 (racemic) [Compound No. 1.11] | 10 | 10 | 10 | 10 | – | 10 |
| CC1(C)CC(S(=O)(=O)C(F)c2nn(C3CCCC3)nc2C(F)(F)F)=NO1 (racemic) [1.28] | 10 | 9 | 9 | 10 | 8 | – |
| C=CCn1nc(C(F)(F)F)c(C(F)(F)[S+]([O-])C2=NOC(C)(C)C2)n1 (racemic) [1.34] | 10 | 9 | 10 | 10 | 10 | – |
| Cc1nn(C(F)F)nc1C(F)[S+]([O-])C1=NOC(C)(C)C1 (racemic) [Compound No. 1.21] | 10 | 10 | 10 | 10 | 10 | – |
| Cc1nn(C)nc1C(F)S(=O)(=O)C1=NOC(C)(C)C1 (stereo not shown) [Compound No. 1.04, 4-[(5,5-dimethyl-4,5-dihydro-isoxazole-3-sulfonyl)-fluoro-methyl]-2,5-dimethyl-2H-[1,2,3]triazole] | 10 | 9 | 10 | 10 | – | 9 |
| Cn1ncc(C(F)(F)S(=O)(=O)C2=NOC(C)(C)C2)n1 [1.35] | 10 | 10 | 9 | 10 | 9 | – |
| CC1(C)CC([S+]([O-])C(F)(F)c2nn(C3CCCC3)nc2C(F)(F)F)=NO1 (racemic) [1.31] | 10 | 0 | 9 | 7 | 9 | – |
| CCn1nc(C(F)(F)F)c(C(F)(F)[S+]([O-])C2=NOC(C)(C)C2)n1 (racemic) [Compound No. 1.16] | 10 | 10 | 10 | 10 | 9 | – |
| CCn1ncc(C(F)(F)[S+]([O-])C2=NOC(C)(C)C2)n1 (stereo not shown) [1.40] | 10 | 10 | 9 | 10 | 9 | – |
| CCn1ncc(C(F)(F)S(=O)(=O)C2=NOC(C)(C)C2)n1 [1.38] | 10 | 10 | 9 | 10 | 9 | – |
| CCn1ncc(C(F)S(=O)(=O)C2=NOC(C)(C)C2)n1 (stereo not shown) [1.37] | 10 | 10 | 9 | 10 | 9 | – |
| Cc1nn(C(F)F)nc1C(F)(F)[S+]([O-])C1=NOC(C)(C)C1 (racemic) [1.22] | 10 | 10 | 10 | 10 | 9 | – |
